Experimental data published in patent US8470889B2 (TRT Pharma Inc., priority 2008, dated 2013).
Residue numbers refer to the chain shown, from its start.

Tests used:
[1] = molecular target: T1, H874Y mutated AR (Homo sapiens, UniProt P10275, H875Y); experiment: Luciferase assay for AR transactivation, H874Y AR, PC-3 cells; type: cell-based; conditions: test compound 1 μM, 0.1 nM DHT
T1 sequence (P10275 1-920 H875Y): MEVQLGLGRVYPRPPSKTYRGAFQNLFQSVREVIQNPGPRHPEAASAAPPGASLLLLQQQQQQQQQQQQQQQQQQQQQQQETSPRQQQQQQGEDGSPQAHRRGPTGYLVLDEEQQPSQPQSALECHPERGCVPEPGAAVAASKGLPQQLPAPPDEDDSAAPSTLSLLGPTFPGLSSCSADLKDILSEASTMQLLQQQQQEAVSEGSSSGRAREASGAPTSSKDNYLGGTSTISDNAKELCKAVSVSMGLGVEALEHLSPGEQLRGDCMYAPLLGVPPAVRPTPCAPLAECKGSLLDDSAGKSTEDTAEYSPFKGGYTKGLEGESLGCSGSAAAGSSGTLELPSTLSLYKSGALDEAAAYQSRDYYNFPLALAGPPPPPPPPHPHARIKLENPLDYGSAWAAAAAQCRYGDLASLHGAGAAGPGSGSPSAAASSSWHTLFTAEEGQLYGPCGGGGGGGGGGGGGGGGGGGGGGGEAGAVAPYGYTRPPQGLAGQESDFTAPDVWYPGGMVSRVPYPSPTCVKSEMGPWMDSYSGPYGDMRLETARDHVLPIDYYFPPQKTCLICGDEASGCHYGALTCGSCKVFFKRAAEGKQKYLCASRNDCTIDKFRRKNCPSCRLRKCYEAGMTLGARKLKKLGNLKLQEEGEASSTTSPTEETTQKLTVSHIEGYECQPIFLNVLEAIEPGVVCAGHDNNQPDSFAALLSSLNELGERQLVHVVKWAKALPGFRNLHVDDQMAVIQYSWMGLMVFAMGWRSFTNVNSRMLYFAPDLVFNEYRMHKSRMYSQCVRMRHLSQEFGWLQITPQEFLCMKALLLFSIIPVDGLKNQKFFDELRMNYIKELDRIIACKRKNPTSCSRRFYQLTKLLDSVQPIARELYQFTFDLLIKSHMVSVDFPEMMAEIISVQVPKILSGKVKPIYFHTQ
Procedure: (§1) PC-3 cells were transiently transfected with pCMV-MMTV-Luc, Renilla null luciferase and AR expressing plasmids. The cells were treated with 0.1 nM DHT with and without test compound for 24 hr. Relative luciferase activity was determined by dual luciferase assay kit (Promega), standardized to Renilla luciferase control and normalized to 0.1 nM DHT without test compound (100%).
(§2) After 16 h, the cells were treated with 0.1 nM of DHT and test compounds at the designated concentration. After further 24 h, the cells were lysed in 100 μL/well passive lysis buffer, and 20 μL of the cell lysates was used for detection of the luciferase activity using Dual Luciferase Assay System (Promega). All experiments were run in triplicate. Relative luciferase activity is determined as the ratio of inducible firefly luciferase luminescence divided by the luminescence of the renilla luciferase control normalized to 0.1 nM DHT without test compounds.
(§3) The potency of antagonistic activity: ++>+.

[2] = test system: LNCaP cells; experiment: MTT cell growth inhibition, LNCaP;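 note: MTT formazan absorbance at 600 nm read after 72 h of compound exposure, IC50 fitted by nonlinear regression of dose-response curves, samples run in triplicate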; conditions: Part D table, 72 hours, I.A. = Inactive
Procedure: (§4) MDA PCa 2b was seeded at the same density in medium BRFF-HPC1 (Athena Enzyme Systems, Baltimore, Md., USA) supplemented with 20% FBS. After overnight incubation, the medium was changed to a fresh medium containing different concentrations of test compounds diluted from stock DMSO solution. The final concentration of DMSO is 0.5%. After 72 h of incubation with test compounds, 20 μL of 3-(4,5-dimethyl thiazol-2-yl)-2,5-diphenyltetrazolium bromide (MTT) solution (5 mg/mL in PBS) were added to each well and incubated further for 2 h. Next, the supernatant was aspirated and the MTT formazan formed by metabolically viable cells was dissolved in 100 μL of isopropanol. The plates were mixed for 30 min, and the absorbance was measured at 600 nm on a plate reader (FLUOstar OPTIMA, BMG LabTech). All samples were in triplicate. The IC50 values were determined from dose-response curves by nonlinear regression using PRISM v5.00 (GraphPad Software Inc, La Jolla, Calif., USA).
(§5) The in vitro cytotoxicity of 1-20 were evaluated by MTT assays in a panel of prostate cancer cell lines, including LNCaP, MDA PCa 2b, 22Rv1, C4-2B and PC-3.

[3] = test system: PC-3 cells; experiment: MTT cell growth inhibition, PC-3; conditions: Part D table, 72 hours, I.A. = Inactive
[4] = molecular target: T2, T877A mutated AR (Homo sapiens, UniProt P10275, T878A); experiment: Luciferase assay for AR transactivation, T877A AR, PC-3 cells; type: cell-based
T2 sequence (P10275 1-920 T878A): T1 sequence (P10275 1-920 H875Y) with Y875H, T878A
Procedure: as §1, §2, §3

[5] = test system: C4-2B cells; experiment: MTT cell growth inhibition, C4-2B;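 note: cells treated with a dilution series for 72 h, then MTT added and absorbance read at 600 nm, IC50 fitted from dose-response curves by nonlinear regression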; conditions: Part D table, 72 hours, I.A. = Inactive
[6] = test system: MDA PCa 2b cells; experiment: MTT cell growth inhibition, MDA PCa 2b;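 note: MDA PCa 2b prostate cancer cells in BRFF-HPC1 with 20% FBS, exposed to compounds for 72 h, viable-cell MTT formazan read as absorbance at 600 nm, 0.5% DMSO vehicle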
Procedure: as §4, §5

[7] = test system: 22Rv1 cells; experiment: MTT cell growth inhibition, 22Rv1
[8] = molecular target: T3, wild-type human AR (Homo sapiens, UniProt P10275); experiment: Luciferase assay for AR transactivation, wild-type AR, PC-3 cells; type: cell-based; design: Antiandrogenic activity evaluated by luciferase assay in PC-3 cells WT: key to the marks not given beside the values; conditions: test compound 1 μM, 0.1 nM DHT
T3 construct: utilizing plasmid expressing a full length of AR; expressed in transfected cells; host or cells: PC-3 cells, plasmid pCMV-AR-wt
T3 sequence (P10275 1-920): T1 sequence (P10275 1-920 H875Y) with Y875H
Procedure: as §1, §2, §3
PC-3 cells were transiently transfected with plasmid expressing wild type human AR and MMTV-Luc. […] RLU, relative luciferase units, were normalized to that of 0.1 nM DHT alone.

[9] = 72 hrs, concentrations up to 50 μM, FIG. 2

Antiandrogenic activity evaluated by luciferase assay in PC-3 cells H874Y [1]: +
agonist activity on T877A AR ([4]; absence of DHT, PC-3 cells): activated
Antiandrogenic activity evaluated by luciferase assay in PC-3 cells T877A ([4]; test compound 1 μM, 0.1 nM DHT): Agonist
Antiandrogenic activity evaluated by luciferase assay in PC-3 cells WT [8]: ++
Compound: CC(C)(O)C(=O)Nc1ccc([N+](=O)[O-])c(C(F)(F)F)c1 [OHF, hydroxyflutamide, reference compound]
Cytotoxicity in prostate cancer cell lines IC50 (μM), LNCaP [2]: I.A.
Cytotoxicity in prostate cancer cell lines IC50 (μM), PC-3 [3]: I.A.
Cytotoxicity in prostate cancer cell lines IC50 (μM), C4-2B [5]: I.A.
growth inhibitory effect on PCa 2b cells [6, 9]: resistant
IC50 ([6]; read-out: Cytotoxicity in prostate cancer cell lines IC50 (μM), PCa-2b, Part D table, MTT, 72 hours): > 50 µM
growth inhibitory effect on 22Rv1 cells [7, 9]: resistant
IC50 ([7]; read-out: Cytotoxicity in prostate cancer cell lines IC50 (μM), 22Rv1, Part D table, MTT, 72 hours): > 50 µM
